According to patent publication US9533957B2, “Tetrazines and method of synthezising the same” (The Regents of the University of California, priority 2012, dated 2017):
{cycp1} = methylcyclopropene carbamate coupled through the 3' amine; {3AmMO} = amino modifier (IDT nomenclature)

Key:
[1] = Fluorescence turn-on spectroscopy of tetrazine-Alexa Fluor 488 with Ac4ManNCyc; assay type: physicochemical
Description: Mannosamine-cyclopropene (Ac4ManNCyc) and tetrazine-Alexa-Fluor 488 stocks were prepared at 1 and 0.1 mM, respectively, in phosphate-buffered saline (PBS) pH 7.4. Fluorescence turn-on was measured using a Perkin Elmer LD-45 spectrometer, with the excitation wavelength set to 480/5 nm, and emission scanned over 490-620 nm (5-nm slit width) at a rate of 50 nm/min. Reaction conditions were 50 μM tetrazine-Alexa-Fluor 488 and 100 μM Ac4ManNCyc in PBS pH 7.4 buffer at room temperature.

[2] = system: LS174T cells; assay: Live-cell microscopy of metabolically incorporated cyclopropene sugar; assay type: cell-based, human; settings: 100 μM for 48 hours, then 10 μM tetrazine-Alexa Fluor 488 for 1 hour
Description: (§1) SKBR3 and LS 174T cells were grown in cDMEM media supplemented with 10% fetal bovine serum, 1% L-glutamine, 1% penicillin/streptomycin. Cells were incubated in 5.0% carbon dioxide, 95% humidity at 37° C. Generally, cells were grown in T-75 tissue culture flasks, seeded at densities between 500,000 and 750,000 cells per flask (cells were quantified with the Life Technologies Countess automated cell counter). The cells were trypsinized with TrypLE Express and resuspended in cDMEM. Cells were allowed to incubate for two days before supplementing with Ac4ManNCyc (N-cyclopropeneacetylmannosamine) or Ac4GlcNAz (N-azidoacetylglucosamine). The cells were then analyzed via confocal microscopy and flow cytometry as described below.
(§2) The SKBR3 and LS174T cells were incubated for two days in the presence of 100 μM of Ac4ManNCyc and/or 50 μM Ac4GlcNAz on a Lab-Tek chamber slide maintained in cDMEM medium. Treatment of cells with tunicamycin was done by preparing a 0.2 mg/mL stock in DMSO, which was diluted to a final working concentration of 1.2 μM tunicamycin in cDMEM (0.5% DMSO). Cells were washed 3× with phosphate-buffered saline (PBS) and incubated for 1 hour at 37° C. in 10 μM tetrazine-BODIPY TMR-X, 10 μM tetrazine-Alexa flour 488 and/or 15 μM dibenzocyclooctyne (DIBO)-Alexa Fluor 647 in cDMEM. The media was aspirated, and cells were washed twice with PBS before imaging. All photos were collected with an Olympus FV1000 confocal microscope using ImageJ 1.45j software package.
(§3) In order to determine if Ac4ManNCyc was incorporated effectively by cells, we incubated adherent human breast cancer (SKBR3) and colon cancer (LS174T) cell lines with 100 μM Ac4ManNCyc for 48 hours in cell media and serum. After incubation, cells were thoroughly washed and then reacted for 1 hour with 10 μM of fluorogenic Alexa Fluor 488 tetrazine. After a second wash, cells were imaged by confocal microscopy (Olympus FV1000). […] In order to ensure that the staining was due to glycan uptake of the probe, we also performed controls by exposing cells to 100 μM Ac4ManNCyc and inhibiting uptake by using glycosylation inhibitors (ie. tunicamycin and αBnGalNAc) or 20 mM of ManNAc as a competitive substrate.^[14] […] These experiments provide evidence that the staining patterns are reporting on glycosylation and uptake of the unnatural cyclopropene mannosamine. We also performed additional studies using flow cytometry to quantitate the relative uptake of sugars that corroborated the imaging data.

[3] = system: SKBR3 cells; assay: as above; assay type: cell-based, human; settings: SKBR3; 100 μM for 48 hours, then 10 μM tetrazine-Alexa Fluor 488 for 1 hour
Description: as §1, §2, §3

[4] = system: SKBR3 cells; assay: Analysis of cell surface cyclopropenes by flow cytometry; assay type: cell-based, human; settings: followed by tetrazine imaging probe
Description: After the incubating the adherent SKBR3 cells in 100 μM of Ac4ManNCyc (1.2 μM tunicamycin and/or 1 mM aBnGalNAc was used in experiments requiring glycosylation inhibitors) they were washed twice in PBS and then incubated in 10 μM of tetrazine-Alexa flour 488 for 1 hour at 37° C. Control cells were not exposed to Ac4ManNCyc and incubated in 10 μM of tetrazine-Alexa flour 488 for 1 hour at 37° C. Cells were then resuspended in 1-2 ml of cDMEM (5.0×10^5 to 1.0×10^6 per ml) using a rubber policeman. The cells were passed through a 25 gauge syringe to ameliorate excessive clumping, and subjected to analysis by flow cytometry using a 200 mW 488 nm blue solid state laser on the Partec Space Flow Cytometer (Partec).

[5] = system: LS174T human colon cancer cells; assay: Simultaneous imaging of two metabolically incorporated unnatural sugars and cross reactivity; assay type: cell-based
Description: as §2
Finally, we tested whether or not we could simultaneously image two different metabolically incorporated unnatural sugar derivatives, Ac4ManNCyc and tetraacetylated N-azidoacetylgalactosamine (Ac4GalNAz). […] Recent experimental work has shown that alkenes and azides can be mutually orthogonal to each other, even when using highly strained trans-cyclooctenes. Additionally, the Houk group has calculated that methyl-cyclopropene handles, such as those we have previously developed, should be mutually orthogonal to azide cyclooctyne reactions. We incubated LS174T human colon cancer cells with 100 μM Ac4ManNCyc and Ac4GalNAz for 2 days. After incubation, we sequentially stained the cells with 10 μM tetrazine-Alexa Fluor 488 and 15 μM dibenzocyclooctyne (DIBO) 647. […] Similar results were obtained with the SKBR3 cell line. […] The ability to simultaneously label two different metabolically incorporated molecules using live-cell compatible inverse-Diels-Alder and Huisgen reactions expands the capabilities of bioorthogonal metabolic imaging.

[6] = Storage stability of cyclopropene derivatives; assay type: physicochemical; settings: stored at −20° C.
[7] = Reaction rate determination of cyclopropenes with tetrazine 3; assay type: physicochemical
Description: A tetrazine 3 stock solution was prepared in DMSO and used to prepare tetrazine solutions at 0.6 mM final concentration in 12% v/v DMSO in ddH2O. Reactions were initiated with excess cyclopropene at final concentrations of 6.0, 8.0, and 10.0 mM. The disappearance of the tetrazine absorption peak at 520 nm was tracked over the reaction timeframe by measuring the absorption spectra using a NanoDrop 2000c spectrophotometer (Thermo Scientific). Samples were placed in a quartz cuvette with 10-mm pathlength and stirred at the maximum speed setting of the instrument. The temperature was uncontrolled by the instrument for room temperature (20° C.) measurements, and set and equilibrated at 37° C. for the higher temperature experiments.
Absorption spectra were measured manually over time. Absorption peak signal was taken as the average of measurements at 519-521 nm. Baseline signal was determined as the sloping line connecting the measured background levels preceding and following the tetrazine peak (410-430 nm and 590-610 nm, respectively). Final peak intensity value was taken as the signal above the baseline. Reaction rates were obtained by fitting the exponential decays of tetrazine peak absorption intensity as a pseudo first order reaction. Nonlinear data fits were performed with GraphPad Prism. Tetrazine reactions with cyclopropene carbamate 5 were carried out at 20 and 37° C. (data points and corresponding fitted curves at 20° C. in FIG. 51, 37° C. in FIG. 2c). Tetrazine reactions with cyclopropene carboxamide 2 were done at 37° C. ([…]. A representative comparison fit is shown for cyclopropenes 5 and 2 at 8.0 mM concentration reacting at 37° C. with 0.6 mM tetrazine.

[8] = Stability of cyclopropene 5 by 1H NMR; assay type: physicochemical; settings: 37° C., over 24 hours
Description: Cyclopropene 5 was kept at 37° C. in D2O: DMSO-d6=10:1 and 1H NMR was taken over a period of 24 h at the following time points: 0.0, 0.5, 1.0, 1.5, 3.0, 6.0 and 24.0 h. By comparing the peak abundance of the cyclopropene alkene proton (6.21 ppm) at different time points, we determined the stability of cyclopropene 5 (Figure S2).

[9] = system: 27mer DNA template; assay: Melting temperatures of DNA template with probes and ligation products; assay type: physicochemical; settings: hybridization target against 27mer template; 250 mM NaCl in buffer; 1 μM each oligonucleotide
Description: Melting temperature of probes and ligation products in hybridization buffer (50 mM MOPS pH 7.5, 250 mM NaCl) were measured using a Beckman-Coulter DU 640 spectrophotometer equipped with a high performance temperature controller and micro auto six-cell holder. Samples at 1 μM concentration of each oligonucleotide were heated to 90° C. and slowly cooled to RT over 1-1.5 h before the measurements. Melting temperature values were obtained by cooling samples from 90° C. to 20° C. at the rate of 1° C./min and measuring at 1° C. increments with each read averaged over 1 s.

[10] = system: 27mer DNA template; assay: Template-driven ligation of tetrazine and cyclopropene oligonucleotide probes (fluorescence); assay type: biochemical
Description: (§4) Tetrazine and cyclopropene-modified oligonucleotide probes were ligated in the presence of a DNA or RNA template at a 1:1:1 ratio. Reactions were done in varying solution and temperature conditions, as indicated. Main hybridization buffer was 50 mM MOPS at pH 7.5, 250 mM NaCl. Ligation reactions with a mismatched DNA template were performed in 5 mM MgCl2 in standard 1× Tris-borate buffer (purchased as 10× UltraPure TBE from Invitrogen: 1.0 M Tris pH 8.4, 0.9 M Boric acid, 10 mM EDTA).
(§5) Ligation reactions were done in standard 96 fluorescence well plates using SpectraMax GeminiXS (Molecular Devices). Temperature was set by the instrument. Where indicated by standard deviations, experiments were performed multiple times. In order to avoid any secondary structure artifacts, DNA or RNA template with added tetrazine probe was first heated to 90° C. and crash-cooled on ice for 2 min right before the experiment. Each well was filled with a total of 100 μL reaction solution, and reactions were timed from the addition of the cyclopropene probe as the last step before starting the measurements. Wells were scanned every 20-60 s depending on the speed of the reactions by using 485 nm excitation and 538 nm emission with the cutoff set at 495 nm. Control reactions without template were done in parallel each time. Buffer-only well intensities were subtracted from the measured raw data before analysis. Data was analyzed using GraphPad Prism 6.0 by applying a nonlinear fit of a one-phase association to each curve where fluorescein signal during reaction was measured.

[11] = system: 27mer RNA template; assay: Ligation of oligonucleotide probes with an RNA template; assay type: biochemical; settings: ligating 13merF15′tet and 13mer3′cycp1
Description: as §4
as §5, with “Wells were scanned every 20-60 s depending on the speed of the reactions by using 485 nm excitation and 538 nm emission with the cutoff set at 495 nm. Control reactions without template were done in parallel each time.” left out

[12] = system: singly-mismatched 27mer template; assay: Single nucleotide mismatch discrimination in probe ligation; assay type: biochemical; settings: 5 mM MgCl2 in Tris-borate buffer at 37° C.; reaction with 13merF15′tet
Description: as §4
A single nucleotide mismatch effect was determined on reaction completion in discriminating conditions from FIG. 2C and is depicted in Figure S8. TBE 1× buffer (pH 8.4, Invitrogen) with 5 mM MgCl2 solution at 37° C. was used for incubation of 13mer5′tet with 13mer3′cycp1 in the presence of a fully matched template, or a sample containing a fully matched template and a single mismatched template, and a sample with only a singly-mismatched template. All DNA concentrations were kept at 1 μM. Fluorescence measurements were taken using a Perkin Elmer LD-45 spectrophotometer, as described above, with the samples in the quartz cuvettes warmed with attached circulating water bath. Initial timepoints were taken of prewarmed samples prior to template addition, and subtracted from the final intensity values (Figure S8).

Substance: 1,3,4,6-Tetra-O-acety-N-cyclopropene tag-D-mannosamine [Ac4ManNCyc]
- fluorogenic response of quenched tetrazine probe [1]: elicits fluorogenic responses
- cell surface staining by confocal microscopy [2]: bright surface staining
- cell surface staining by confocal microscopy [3]: bright surface staining
- fluorescence intensity by flow cytometry compared to controls [4]: increased fluorescence intensity
- cell surface staining after co-incubation of both sugars ([5]; 100 μM, 2 days, stained with 10 μM tetrazine-Alexa Fluor 488 and 15 μM DIBO 647): cell surface staining in both the fluorescent channels
- cross reactivity: surface staining with DIBO 647 ([5]; cells incubated with only this sugar): minimal surface staining

Substance: 2-methyl-cyclopropene carbamate [cyclopropene 5]
- storage stability at −20° C. [6]: without degradation
- rate constant ([7]; 20° C., 12% DMSO by volume): 7 ± 1 M⁻¹ s⁻¹
- improvement of rate constant compared to cyclopropene carboxamide 2 ([7]; 37° C.): approximately two orders of magnitude
- second order rate constant ([7]; 37° C., water/DMSO (12% DMSO by volume)): 13 ± 2 M⁻¹ s⁻¹
- degradation in aqueous solutions [8]: no significant degradation

Substance: 13mer3′cycp1: 5′-ATT CAA CAC TAC C/3AmMO/-cyclopropene-3′ (SEQ ID NO:5), methyl-cyclopropene carbamate cycp1 (DNA ATTCAACACTACC; DNA, 3' {3AmMO}-{cycp1}, backbone not given here)
- Melting T [9]: 50.4 °C
- reaction yield by LC/MS ([10]; disappearance of 13merF15′tet and appearance of product): approximately 92%
- effective molarity of the intramolecular reaction ([10]; estimated assuming the reaction is limited by ligation): 53 mM
- observed first order rate constant of DNA-templated reaction ([10]; reaction with 13merF15′tet in the presence of DNA template): 0.019 ± 0.001 s⁻¹
- time at which the fluorescence signal plateaus ([10]; reaction with 13merF15′tet, 1 μM 27mer template): about 200 s
- ligation with RNA template compared with DNA template [11]: equally effective
- effect of single mismatch (T to G) in template on reaction rate [12]: only a moderate difference
